Tested on: C57BL/6J male mice
Assay: AMLN diet NASH mouse model, drug provided in the AMLN diet
Type: in vivo
Settings: 60 mg/kg mifepristone in AMLN diet, 8 weeks, vs diet-alone control (FIG. 8A)
Procedure: Two studies were conducted in C57BL/6J male mice (n=12 per group) maintained on a diet high in fat (40%), cholesterol (2%) and fructose (20%; referred to as the AMLN diet: see, e.g., Tolbol et al., World Journal of Gastroenterology, 24(2):179-194 (2018)) for 42 weeks before dosing with miricorilant was initiated. In the first study, all animals ate the AMLN diet, and received either placebo, 30 mg/kg miricorilant, or 60 mg/kg mifepristone once per day orally. […] All animals received the AMLN diet for 42 weeks prior to receiving their first dose of study drug or placebo. 4 weeks prior to receiving that first dose, a liver biopsy and histological examination of biopsy tissue was performed for each animal; 3 weeks prior to receiving that first dose, animals were randomized into three groups: control, miricorilant, or mifepristone. Only mice with fibrosis stage >=1 and steatosis score >=2 were allowed in the study and the groups were stratified according to liver col1a1 so that each study group had similar overall distributions of liver col1a1 among the mice. All animals continued on the study diet for the 3 weeks following randomization, at which time study drug or placebo administration began. All animals received their assigned drugs for 8 weeks (the 8 week in vivo study period). At 56 days (week 8) after initiation of drug administration, plasma ALT, AST, triglycerides, total cholesterol, and miricorilant levels were measured, and animals were sacrificed, liver necropsies were performed, liver histological ((NAFLD Activity Score, Fibrosis Stage, steatosis (scored using hematoxylin and eosin staining (HE)), col1a (scored using immunohistochemistry (IHC)) and Galectin-3 (IHC)) and liver biochemical measurements (including liver triglycerides and total cholesterol) were made, and liver and plasma samples were obtained for genetic ((e.g., RNA sequencing) and other analyses.
Thus, in these studies, the mice were subjected to a liver biopsy approximately 4 weeks before initiation of dosing with miricorilant and only mice with confirmed fibrosis (fibrosis stage ≥1) and steatosis (score ≥2) were entered into the study. At the end of the dosing period, blood samples were collected for determination of plasma ALT, AST, triglycerides, total cholesterol, and miricorilant. Liver samples were collected for analysis of triglycerides, total cholesterol, hydroxyproline, and histopathology. Body weight and food consumption were monitored throughout the study.
Type I collagen IHC staining Type I collagen (Southern Biotech, Cat. 1310-01) IHC were performed using standard procedures. Briefly, after antigen retrieval and blocking of endogenous peroxidase activity, slides were incubated with primary antibody. The primary antibody was detected using a polymeric HRP-linker antibody conjugate. Next, the primary antibody was visualized with DAB as chromogen. Finally, sections were counterstained in hematoxylin and cover-slipped.
Liver Galectin-3 content Galectin-3 (Biolegend, Cat. #125402) IHC was performed using standard procedures. Briefly, after antigen retrieval and blocking of endogenous peroxidase activity, slides were incubated with primary antibody. The primary antibody was detected using a linker secondary antibody followed by amplification using a polymeric HRP-linker antibody conjugate. Next, the primary antibody was visualized with DAB as chromogen. Finally, sections were counterstained in hematoxylin and cover-slipped.
Total liver col1a1 was evaluated from liver samples stained with anti-type I collagen (col1a1) (Southern Biotech, cat. 1310-01) at the end of the treatment period (typically using low power (20×) magnification). Galectin-3 content was evaluated from images of liver samples stained with anti-Galectin-3 (BioLegend, Cat. 125402) at the end of the treatment period (typically using low power (20×) magnification). Terminal relative (left) and total (right) liver type I Collagen (Col1a1) quantification was determined by morphometry. […]

Structure (SMILES): CC#C[C@]1(O)CC[C@H]2[C@@H]3CCC4=CC(=O)CCC4=C3[C@@H](c3ccc(N(C)C)cc3)C[C@@]21C [mifepristone, reference compound]
- Liver weight at termination of the study: significantly increased
